Legend:
[1] = target: T1, HiBit-BRG1 fusion protein (Homo sapiens, UniProt P51532); test: HiBiT-BRG1 cell-based degradation assay (Nano-Glo HiBiT lytic detection, 24 h); conditions: HeLa cell line expressing HiBit-BRG1 and LgBit; for Dmax: read-out: BRG1 HiBit Degradation Maximum (%); for DC50: read-out: BRMG1 HiBit Degradation IC50
T1 construct: expressed in transfected cells
Outline: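 Luminescence from HiBiT/LgBiT complementation after lytic detection reagent was read following 24 h compound exposure of HeLa cells stably carrying HiBiT-BRG1 plus LgBiT (5000 cells/well). Signal scaled to % degradation using DMSO-treated cells as 0% and cells given 2 μM known BRM/BRG1 degrader as 100%.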

HiBit-BRM fusion protein = target: T2, HiBit-BRM fusion protein (Homo sapiens, UniProt P51531); test: HiBiT-BRM cell-based degradation assay (Nano-Glo HiBiT lytic detection, 24 h); conditions: HeLa cell line expressing HiBiT-BRM; for DC50: read-out: BRM HiBit Degradation IC50
T2 construct: expressed in transfected cells
Outline: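 Luminescence from LgBiT complementation quantified remaining HiBiT-BRM in stably expressing HeLa cells after 24 h compound exposure (top final dose 30 μM, 3-fold, 10 points, duplicate). Degradation expressed as percent relative to DMSO and a 2 μM reference degrader.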

T2 sequence (P51531 whole entry, the tested form may be a part): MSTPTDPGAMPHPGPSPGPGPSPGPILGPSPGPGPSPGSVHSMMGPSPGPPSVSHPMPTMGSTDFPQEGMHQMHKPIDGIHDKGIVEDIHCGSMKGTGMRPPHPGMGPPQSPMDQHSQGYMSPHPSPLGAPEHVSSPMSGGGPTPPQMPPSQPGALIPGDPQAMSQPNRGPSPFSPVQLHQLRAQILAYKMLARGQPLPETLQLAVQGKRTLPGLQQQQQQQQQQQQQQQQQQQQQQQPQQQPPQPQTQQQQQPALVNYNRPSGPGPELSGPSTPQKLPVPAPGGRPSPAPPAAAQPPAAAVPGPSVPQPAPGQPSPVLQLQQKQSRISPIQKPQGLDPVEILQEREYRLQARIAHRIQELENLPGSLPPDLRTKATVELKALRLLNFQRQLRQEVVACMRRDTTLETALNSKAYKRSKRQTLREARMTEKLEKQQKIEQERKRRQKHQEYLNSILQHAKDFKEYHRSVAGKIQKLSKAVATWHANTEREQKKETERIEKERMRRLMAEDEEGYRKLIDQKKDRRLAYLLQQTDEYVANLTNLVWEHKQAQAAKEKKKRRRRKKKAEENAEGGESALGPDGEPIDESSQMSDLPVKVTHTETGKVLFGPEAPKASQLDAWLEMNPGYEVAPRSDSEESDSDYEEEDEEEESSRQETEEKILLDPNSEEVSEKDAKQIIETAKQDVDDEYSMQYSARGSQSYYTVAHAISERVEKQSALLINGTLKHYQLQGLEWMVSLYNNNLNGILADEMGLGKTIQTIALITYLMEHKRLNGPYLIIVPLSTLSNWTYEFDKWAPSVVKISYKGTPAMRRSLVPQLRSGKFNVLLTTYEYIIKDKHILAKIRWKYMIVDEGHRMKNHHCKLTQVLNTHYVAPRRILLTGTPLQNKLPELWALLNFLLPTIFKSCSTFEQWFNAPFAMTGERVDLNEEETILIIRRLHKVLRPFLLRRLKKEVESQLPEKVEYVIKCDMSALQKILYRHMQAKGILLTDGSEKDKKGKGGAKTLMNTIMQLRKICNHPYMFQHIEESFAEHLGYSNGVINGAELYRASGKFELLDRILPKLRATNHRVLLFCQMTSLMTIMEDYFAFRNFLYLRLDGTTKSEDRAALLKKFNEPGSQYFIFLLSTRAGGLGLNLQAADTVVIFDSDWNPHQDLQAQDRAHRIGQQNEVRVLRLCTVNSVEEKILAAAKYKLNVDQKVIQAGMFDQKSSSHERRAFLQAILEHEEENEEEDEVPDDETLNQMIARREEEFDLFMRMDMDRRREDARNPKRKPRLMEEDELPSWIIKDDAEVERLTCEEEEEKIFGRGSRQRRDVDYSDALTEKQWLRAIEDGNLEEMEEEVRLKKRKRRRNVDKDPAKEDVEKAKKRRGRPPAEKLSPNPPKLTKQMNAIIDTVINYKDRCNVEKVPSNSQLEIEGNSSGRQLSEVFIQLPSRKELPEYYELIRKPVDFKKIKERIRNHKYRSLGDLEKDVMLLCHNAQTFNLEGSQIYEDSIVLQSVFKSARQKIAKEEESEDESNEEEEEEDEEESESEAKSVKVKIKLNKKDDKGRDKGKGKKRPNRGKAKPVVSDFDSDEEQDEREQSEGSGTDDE
T1 sequence (P51532 whole entry, the tested form may be a part): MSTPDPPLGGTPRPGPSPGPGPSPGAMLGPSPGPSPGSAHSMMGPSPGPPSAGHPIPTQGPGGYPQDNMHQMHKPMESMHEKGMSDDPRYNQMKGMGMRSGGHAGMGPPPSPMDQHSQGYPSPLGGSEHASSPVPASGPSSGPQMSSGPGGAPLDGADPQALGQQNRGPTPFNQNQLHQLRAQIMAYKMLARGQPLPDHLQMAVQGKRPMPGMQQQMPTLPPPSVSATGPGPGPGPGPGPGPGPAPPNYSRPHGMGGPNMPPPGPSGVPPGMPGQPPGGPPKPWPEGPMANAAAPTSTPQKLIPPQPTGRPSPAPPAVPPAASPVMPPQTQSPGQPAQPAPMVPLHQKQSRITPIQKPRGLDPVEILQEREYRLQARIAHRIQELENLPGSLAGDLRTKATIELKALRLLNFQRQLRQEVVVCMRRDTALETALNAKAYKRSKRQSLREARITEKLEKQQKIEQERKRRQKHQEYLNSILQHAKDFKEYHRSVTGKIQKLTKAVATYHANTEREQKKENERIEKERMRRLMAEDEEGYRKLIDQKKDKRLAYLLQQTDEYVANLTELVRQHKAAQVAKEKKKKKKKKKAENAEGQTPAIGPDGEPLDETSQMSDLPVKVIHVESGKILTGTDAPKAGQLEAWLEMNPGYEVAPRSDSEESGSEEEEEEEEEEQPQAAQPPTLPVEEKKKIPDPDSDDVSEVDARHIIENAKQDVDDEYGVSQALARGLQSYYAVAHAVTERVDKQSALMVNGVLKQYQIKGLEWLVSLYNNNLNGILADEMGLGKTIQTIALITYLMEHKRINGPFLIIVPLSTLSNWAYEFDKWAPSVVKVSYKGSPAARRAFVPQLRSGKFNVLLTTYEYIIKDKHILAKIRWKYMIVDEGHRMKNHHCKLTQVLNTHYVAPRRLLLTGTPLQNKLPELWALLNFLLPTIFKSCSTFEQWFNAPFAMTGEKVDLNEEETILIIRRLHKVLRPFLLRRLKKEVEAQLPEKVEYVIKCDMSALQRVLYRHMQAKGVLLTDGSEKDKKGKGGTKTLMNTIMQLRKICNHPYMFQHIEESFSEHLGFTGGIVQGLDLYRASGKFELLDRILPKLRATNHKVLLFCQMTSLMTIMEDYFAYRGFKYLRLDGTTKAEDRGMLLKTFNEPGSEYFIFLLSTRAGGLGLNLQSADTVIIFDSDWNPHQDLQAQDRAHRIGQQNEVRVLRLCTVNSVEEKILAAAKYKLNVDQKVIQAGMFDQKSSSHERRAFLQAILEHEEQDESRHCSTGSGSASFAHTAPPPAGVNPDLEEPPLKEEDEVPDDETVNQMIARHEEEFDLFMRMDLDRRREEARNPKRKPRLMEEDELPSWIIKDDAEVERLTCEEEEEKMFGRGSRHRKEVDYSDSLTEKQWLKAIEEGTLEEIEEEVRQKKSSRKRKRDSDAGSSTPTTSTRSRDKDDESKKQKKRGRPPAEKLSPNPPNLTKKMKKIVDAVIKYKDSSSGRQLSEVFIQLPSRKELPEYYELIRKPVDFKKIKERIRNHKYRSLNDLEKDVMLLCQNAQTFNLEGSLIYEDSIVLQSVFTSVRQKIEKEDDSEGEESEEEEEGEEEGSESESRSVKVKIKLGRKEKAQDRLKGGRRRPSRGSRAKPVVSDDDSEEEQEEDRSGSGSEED

Dmax [1] [%] | DC50 [1] [nM] | DC50 (HiBit-BRM fusion protein) [nM] | SMILES | BRM HiBit Degradation Maximum (%) (HiBit-BRM fusion protein)
> 75 | < 10 | < 10 | Cc1ncsc1-c1ccc([C@H](C)NC(=O)[C@@H]2C[C@@H](O)CN2C(=O)[C@@H](c2cc(-c3cnc(N4CC[C@H](c5cc6nnc(-c7ccccc7O)cc6n5C5(C)CC5)C4)nc3)no2)C(C)C)cc1 [Compound 104, (2S,4R)-4-hydroxy-1-((R)-2-(3-(2-((S)-3-(3-(2-hydroxyphenyl)-5-(1-methylcyclopropyl)-5H-pyrrolo[3,2-c]pyridazin-6-yl)pyrrolidin-1-yl)pyrimidin-5-yl)isoxazol-5-yl)-3-methylbutanoyl)-N-((S)-1-(4-(4-methylthiazol-5-yl)phenyl)ethyl)pyrrolidine-2-carboxamide] | A (“A” indicates maximum degradation ≥75%)
< 50 |  | < 10 | Cc1ncsc1-c1ccc([C@H](C)NC(=O)[C@@H]2C[C@@H](O)CN2C(=O)[C@@H](c2cc(N3CC4(CC(c5cc6nnc(-c7ccccc7O)cc6n5C5CCC5)C4)C3)no2)C(C)C)cc1 [Compound 105, (2S,4R)-1-[(2R)-2-(3-{6-[5-cyclobutyl-3-(2-hydroxyphenyl)pyrrolo[3,2-c]pyridazin-6-yl]-2-azaspiro[3.3]heptan-2-yl}-1,2-oxazol-5-yl)-3-methylbutanoyl]-4-hydroxy-N-[(1S)-1-[4-(4-methyl-1,3-thiazol-5-yl)phenyl]ethyl]pyrrolidine-2-carb oxamide] | A (“A” indicates maximum degradation ≥75%)
< 50 |  | > 10 | Cc1ncsc1-c1ccc([C@H](C)NC(=O)[C@@H]2C[C@@H](O)CN2C(=O)[C@@H](c2cc(-c3cnc(N4CC[C@@H](c5cc6nnc(-c7cccc(F)c7O)cc6n5C5CC5)C4)nc3)no2)C(C)C)cc1 [Compound 106, (2S,4R)-1-((R)-2-(3-(2-((R)-3-(5-cyclopropyl-3-(3-fluoro-2-hydroxyphenyl)-5H-pyrrolo[3,2-c]pyridazin-6-yl)pyrrolidin-1-yl)pyrimidin-5-yl)isoxazol-5-yl)-3-methylbutanoyl)-4-hydroxy-N-((S)-1-(4-(4-methylthiazol-5-yl)phenyl)ethyl)pyrrolidine-2-carboxamide] | B (“B” indicates maximum degradation ≥50%)
< 50 |  | > 10 | Cc1cc(-c2cc([C@H](C(=O)N3C[C@H](O)C[C@H]3C(=O)N[C@@H](C)c3ccc(-c4scnc4C)cc3)C(C)C)on2)cnc1N1CC[C@@H](c2cc3nnc(-c4ccccc4O)cc3n2C2CC2)C1 [Compound 107, (2S,4R)-1-((R)-2-(3-(6-((R)-3-(5-cyclopropyl-3-(2-hydroxyphenyl)-5H-pyrrolo[3,2-c]pyridazin-6-yl)pyrrolidin-1-yl)-5-methylpyridin-3-yl)isoxazol-5-yl)-3-methylbutanoyl)-4-hydroxy-N-((S)-1-(4-(4-methylthiazol-5-yl)phenyl)ethyl)pyrrolidine-2-carboxamide] | A (“A” indicates maximum degradation ≥75%)
< 50 |  | > 10 | Cc1ncsc1-c1ccc([C@H](C)NC(=O)[C@@H]2C[C@@H](O)CN2C(=O)[C@@H](c2cc(-c3cnc(N4CC[C@H](c5cc6nnc(-c7cc(F)cc(F)c7O)cc6n5C5CC5)C4)nc3)no2)C(C)C)cc1 [Compound 108, (2S,4R)-1-((R)-2-(3-(2-((S)-3-(5-cyclopropyl-3-(3,5-difluoro-2-hydroxyphenyl)-5H-pyrrolo[3,2-c]pyridazin-6-yl)pyrrolidin-1-yl)pyrimidin-5-yl)isoxazol-5-yl)-3-methylbutanoyl)-4-hydroxy-N-((S)-1-(4-(4-methylthiazol-5-yl)phenyl)ethyl)pyrrolidine-2-carboxamide] | B (“B” indicates maximum degradation ≥50%)
< 50 |  | < 10 | Cc1ncsc1-c1ccc([C@H](C)NC(=O)[C@@H]2C[C@@H](O)CN2C(=O)[C@@H](c2cc(-c3cnc(N4CC[C@H](c5cc6nnc(-c7cccc(F)c7O)cc6n5C5CC5)C4)nc3)no2)C(C)C)cc1 [Compound 109, (2S,4R)-1-((R)-2-(3-(2-((S)-3-(5-cyclopropyl-3-(3-fluoro-2-hydroxyphenyl)-5H-pyrrolo[3,2-c]pyridazin-6-yl)pyrrolidin-1-yl)pyrimidin-5-yl)isoxazol-5-yl)-3-methylbutanoyl)-4-hydroxy-N-((S)-1-(4-(4-methylthiazol-5-yl)phenyl)ethyl)pyrrolidine-2-carboxamide] | A (“A” indicates maximum degradation ≥75%)
< 50 |  | < 10 | Cc1ncsc1-c1ccc([C@H](C)NC(=O)[C@@H]2C[C@@H](O)CN2C(=O)[C@@H](c2cc(-c3cnc(N4CC[C@@H](c5cc6nnc(-c7cc(F)cc(F)c7O)cc6n5C5CC5)C4)nc3)no2)C(C)C)cc1 [Compound 111, (2S,4R)-1-((R)-2-(3-(2-((R)-3-(5-cyclopropyl-3-(3,5-difluoro-2-hydroxyphenyl)-5H-pyrrolo[3,2-c]pyridazin-6-yl)pyrrolidin-1-yl)pyrimidin-5-yl)isoxazol-5-yl)-3-methylbutanoyl)-4-hydroxy-N-((S)-1-(4-(4-methylthiazol-5-yl)phenyl)ethyl)pyrrolidine-2-carboxamide] | A (“A” indicates maximum degradation ≥75%)
> 50 | > 10 | > 10 | Cc1ncsc1-c1ccc([C@H](C)NC(=O)[C@@H]2C[C@@H](O)CN2C(=O)[C@@H](c2cc(-c3cnc(N4CC[C@H](c5cc6nnc(-c7ccccc7O)cc6n5C5CCC5)C4)nc3)no2)C(C)C)cc1 [Compound 112, (2S,4R)-1-((R)-2-(3-(2-((S)-3-(5-cyclobutyl-3-(2-hydroxyphenyl)-5H-pyrrolo[3,2-c]pyridazin-6-yl)pyrrolidin-1-yl)pyrimidin-5-yl)isoxazol-5-yl)-3-methylbutanoyl)-4-hydroxy-N-((S)-1-(4-(4-methylthiazol-5-yl)phenyl)ethyl)pyrrolidine-2-carboxamide] | A (“A” indicates maximum degradation ≥75%)
> 50 | > 10 | < 10 | Cc1ncsc1-c1ccc([C@H](C)NC(=O)[C@@H]2C[C@@H](O)CN2C(=O)[C@@H](c2cc(N3CCC4(CC3)CC(c3cc5nnc(-c6ccccc6O)cc5n3C)C4)no2)C(C)C)cc1 [Compound 113, (2S,4R)-4-hydroxy-1-((R)-2-(3-(2-(3-(2-hydroxyphenyl)-5-methyl-5H-pyrrolo[3,2-c]pyridazin-6-yl)-7-azaspiro[3.5]nonan-7-yl)isoxazol-5-yl)-3-methylbutanoyl)-N-((S)-1-(4-(4-methylthiazol-5-yl)phenyl)ethyl)pyrrolidine-2-carboxamide] | A (“A” indicates maximum degradation ≥75%)
> 75 | > 10 | < 10 | Cc1ncsc1-c1ccc([C@H](C)NC(=O)[C@@H]2C[C@@H](O)CN2C(=O)[C@@H](c2cc(-c3cnc(N4CC[C@@H](c5cc6nnc(-c7ccccc7O)cc6n5CC5CC5)C4)nc3)no2)C(C)C)cc1 [Compound 114, (2S,4R)-1-((R)-2-(3-(2-((R)-3-(5-(cyclopropylmethyl)-3-(2-hydroxyphenyl)-5H-pyrrolo[3,2-c]pyridazin-6-yl)pyrrolidin-1-yl)pyrimidin-5-yl)isoxazol-5-yl)-3-methylbutanoyl)-4-hydroxy-N-((S)-1-(4-(4-methylthiazol-5-yl)phenyl)ethyl)pyrrolidine-2-carboxamide] | A (“A” indicates maximum degradation ≥75%)
> 50 | > 10 | < 10 | Cc1ncsc1-c1ccc([C@H](C)NC(=O)[C@@H]2C[C@@H](O)CN2C(=O)[C@@H](c2cc(-c3cnc(N4CC[C@H](c5cc6nnc(-c7ccccc7O)cc6n5CC5CC5)C4)nc3)no2)C(C)C)cc1 [Compound 115, (2S,4R)-1-((R)-2-(3-(2-((S)-3-(5-(cyclopropylmethyl)-3-(2-hydroxyphenyl)-5H-pyrrolo[3,2-c]pyridazin-6-yl)pyrrolidin-1-yl)pyrimidin-5-yl)isoxazol-5-yl)-3-methylbutanoyl)-4-hydroxy-N-((S)-1-(4-(4-methylthiazol-5-yl)phenyl)ethyl)pyrrolidine-2-carboxamide] | A (“A” indicates maximum degradation ≥75%)
< 50 |  | > 10 | Cc1ncsc1-c1ccc([C@H](C)NC(=O)[C@@H]2C[C@@H](O)CN2C(=O)[C@@H](c2cc(-c3ccnc(N4CC[C@@H](c5cc6nnc(-c7ccccc7O)cc6n5C5CC5)C4)n3)no2)C(C)C)cc1 [Compound 116, (2S,4R)-1-[(2R)-2-(3-{2-[(3R)-3-[5-cyclopropyl-3-(2-hydroxyphenyl)pyrrolo[3,2-c]pyridazin-6-yl]pyrrolidin-1-yl]pyrimidin-4-yl}-1,2-oxazol-5-yl)-3-methylbutanoyl]-4-hydroxy-N-[(1S)-1-[4-(4-methyl-1,3-thiazol-5-yl)phenyl]ethyl]pyrrolidine-2-carboxamide] | A (“A” indicates maximum degradation ≥75%)
< 50 |  | < 10 | Cc1ncsc1-c1ccc([C@H](C)NC(=O)[C@@H]2C[C@@H](O)CN2C(=O)[C@@H](c2cc(N3CCC4(CC3)CC(c3cc5nnc(-c6ccccc6O)cc5n3C3CC3)C4)no2)C(C)C)cc1 [Compound 117, (2S,4R)-1-((R)-2-(3-(2-(5-cyclopropyl-3-(2-hydroxyphenyl)-5H-pyrrolo[3,2-c]pyridazin-6-yl)-7-azaspiro[3.5]nonan-7-yl)isoxazol-5-yl)-3-methylbutanoyl)-4-hydroxy-N-((S)-1-(4-(4-methylthiazol-5-yl)phenyl)ethyl)pyrrolidine-2-carboxamide] | A (“A” indicates maximum degradation ≥75%)
